Measurements published in patent US8703951B2, “Synthesis of 4H-benzo[D]pyrrolo[1,2-A]thiazoles and indolizino[6,7-b]indole derivatives and their use as antitumor therapeutic agents” (Academia Sinica, priority 2011, dated 2014).
Read-outs that look alike come from different tables or passages of the source.

Tests used:
[1] = test system: human large cell lung carcinoma H460 xenograft; details: combination with arsenic trioxide (ATO); background; cited from earlier work
[2] = test system: cisplatin-resistant NTUB 1/P human bladder carcinoma xenografts; details: combination with arsenic trioxide (ATO); background; cited from earlier work
CCRF-CEM/Taxol = assay: In vitro cytotoxicity, XTT assay, CCRF-CEM/Taxol; assay type: cell-based, human; details: Table 5; for IC50: Taxol-resistant subline, XTT, 72 h, read-out: Cell Growth inhibition (IC50 μM) CCRF-CEM/Taxol; for fold of cross-resistant vs IC50 of the parent cell line, CCRF-CEM/Taxol: number in brackets
Description: (§1) Human colon carcinoma HCT-116 cells and human prostate adenocarcinoma PC-3 cells were obtained from American Type Culture Collection (ATCC, Rockville, Md.). Human mammary carcinoma (MX-1) tumor cells were obtained from MSKCC cell bank. The CCRF-CEM human lymphoblastic leukemia cells and their vinblastine resistant subline (CCRF-CEM/VBL, 680-fold resistance in vitro) were obtained from Dr. William Beck of the University of Illinois, Chicago, and CCRF-CEM/Taxol (330-fold resistance in vitro). Resistant cells CCRF-CEM/taxol were produced by exposing the parent cells to increasing sublethal concentration (IC50-IC90) of paclitaxel for six months.
(§2) In preparation for in vitro cytotoxicity assays, cells were cultured at an initial density 2−5×10^4 cells per milliliter. They were maintained in a 5% CO2-humidified atmosphere at 37° C. in RPMI medium 1640 (GIBCO/BRL) containing penicillin (100 units/mL), streptomycin (100 μg/mL, GIBCO/BRL), and 5% heat-inactivated FBS. For cells grown in suspension (such as CCRF-CEM and its sublines), cytotoxicity was measured, by using XTT microculture method^23 in 96-well microtiter plates.
(§3) The cytotoxic effects of the newly synthesized compounds were determined in T-cell acute lymphocytic leukemia (CCRF-CEM) and their resistant subcell lines (CCRF-CEM/Taxol and CCRF-CEM/VBL) by the XTT assay^24 and human solid tumor cells (i.e. breast carcinoma MX-1 and colon carcinoma HCT-116) by the SRB assay^25 in a 72 h incubation using a microplate spectrophotometer as described previously.^25 After the addition of phenazine methosulfate-XTT solution, incubated at 37° C. for 6 h and absorbance at 450 and 630 nm was detected on a microplate reader (EL 340). The cytotoxicity of the newly synthesized compounds against non-small cell lung carcinoma H1299, prostate cancer PC3, oral cancer OECM-1 and glioma U87 were determined by the Alamar blue assay^26 in a 72 h incubation using a microplate spectrophotometer as described previously. After the addition of alamar blue solution, it was incubated at 37° C. for 6 h. Absorbance at 570 and 600 nm was detected on a microplate reader. IC50 values were determined from dose-effect relationship at six or seven concentrations of each drug using the CompuSyn software by Chou and Martin^27 based on the median-effect principle and plot.^28,29 Ranges given for Cisplatin were mean±SE (n=4).

linearized pBR322DNA = assay: DNA cross-linking, alkaline agarose gel shift assay; assay type: biochemical; details: 1, 10, and 20 μM; FIG. 8
Procedure: Formation of DNA cross-linking was analyzed by alkaline agarose gel electrophoresis assay. […] The reaction mixture was incubated at 37° C. for 2 h. At the end of reaction, the plasmid DNA was linearized by digestion with BamHI and followed by precipitation with ethanol. The DNA pellets were dissolved and denatured in alkaline buffer (0.5 N NaOH-10 mM EDTA). An aliquot of 20 μL of DNA solution (1000 ng) was mixed with 4 μL of 6× alkaline loading dye and then electrophoretically resolved on a 0.8% alkaline agarose gel with NaOH-EDTA buffer at 4° C. The electrophoresis was carried out at 18 V for 22 h. After staining the gels with an ethidium bromide solution, the DNA was then visualized under UV light.

breast carcinoma MX-1 = assay: In vitro cytotoxicity, SRB assay, MX-1; assay type: cell-based, human; details: Table 6, 72 h
Description: as §1, §2, §3

CCRF-CEM/VBL = assay: In vitro cytotoxicity, XTT assay, CCRF-CEM/VBL; assay type: cell-based, human; details: Table 5; for fold of cross-resistant vs IC50 of the parent cell line, CCRF-CEM/VBL: number in brackets; for IC50: vinblastine-resistant subline, XTT, 72 h, read-out: Cell Growth inhibition (IC50 μM) CCRF-CEM/VBL
Description: as §1, §2, §3

prostate cancer PC3 = assay: In vitro cytotoxicity, Alamar blue assay, PC3; assay type: cell-based, human
Procedure: (§4) Prostate cancer PC3, non-small cell lung carcinoma cells H1299, and human glioma cells U87 were purchased from the American Type Culture Collection (Rockville, Md.). OECM-1 (human gingival squamous cell carcinoma cells) was obtained from Dr C.-L. Meng (National Defense Medical College, Taiwan).^22
as §2, §3

colon carcinoma HCT-116 = assay: In vitro cytotoxicity, SRB assay, HCT-116; assay type: cell-based, human; details: Table 6, 72 h
Description: as §1, §2, §3

[3] = test system: human lymphoblastic leukemia (CCRF-CEM); assay: In vitro cytotoxicity, XTT assay, CCRF-CEM; assay type: cell-based
Description: as §1, §2, §3

glioma U87 = assay: In vitro cytotoxicity, Alamar blue assay, U87; assay type: cell-based, human
Procedure: as §4, §2, §3

oral cancer OECM-1 = assay: In vitro cytotoxicity, Alamar blue assay, OECM-1; assay type: cell-based, human
Procedure: as §4, §2, §3

[4] = test system: non-small cell lung carcinoma H1299; assay: In vitro cytotoxicity, Alamar blue assay, H1299; assay type: cell-based, human
Procedure: as §4, §2, §3

[5] = test system: MX-1 human mammary xenograft; assay: Therapeutic efficacy in nude mice bearing MX-1 xenograft; assay type: in vivo; details: for complete tumor remission (CR): FIG. 6, i.v. inj., n=4
Procedure: Athymic nude mice bearing the nu/nu gene were obtained from NCI, Frederick, Md. and used for all human tumor xenografts. Male nude mice, 6 weeks or older, weighing 20-24 g or more were used. Compounds were administered via the tail vein for i.v. injection or infusion as described previously.^26 A typical formulation for chemotherapeutic studies for each drug was dissolved in DSMO to make a 25 mg/ml fresh solution, 0.4 ml of this solution was mixed with 0.3 ml of Tween 80, plus 1.3 ml to make 2 ml of 5 mg/ml solution. Bolus injection volume was 0.1-0.2 ml per mouse. Tumor volume was assessed by measuring length×width×height (or width) by using a caliper. For tumor-bearing nude mice during the course of the experiment, the body weight refers to total weight minus the weight of the tumor. All animal studies were conducted in accordance with the guidelines for the National Institute of Health Guide for the Care and Use of Animals and the protocol approved by the Institutional Animal Care and Use Committee.

[6] = Table 5, 72 h incubation, read-out: Cell Growth inhibition (IC50 μM) CCRF-CEM

Structure (SMILES) | IC50 (CCRF-CEM/Taxol) | fold of cross-resistant vs IC50 of the parent cell line, CCRF-CEM/Taxol (CCRF-CEM/Taxol) | DNA interstrand cross-linking (linearized pBR322DNA) | IC50 (breast carcinoma MX-1) | fold of cross-resistant vs IC50 of the parent cell line, CCRF-CEM/VBL (CCRF-CEM/VBL) | IC50 (CCRF-CEM/VBL) | IC50 (prostate cancer PC3; Table 6, 72 h) | IC50 (colon carcinoma HCT-116) | IC50 [3, 6] | IC50 (glioma U87; Table 6, 72 h) | IC50 (oral cancer OECM-1; Table 6, 72 h) | IC50 ([4]; Table 6, 72 h) | complete tumor remission (CR) [5] | further results
CNC(=O)OCc1c(COC(=O)NC)c(-c2ccc(OC)cc2)n2c1Cc1ccccc1-2 [BO-1012] | – | – | – | – | – | – | – | – | – | – | – | – | – | tumor suppression [1]: more than 82%; tumor suppression [2]: > 92%
CCNC(=O)OCc1c(COC(=O)NCC)c2sc3ccccc3n2c1-c1ccc(Cl)cc1 [Compound 19c, (1-(4-Chlorophenyl)benzo[d]pyrrolo[2,1-b]thiazole-2,3-diyl)bis(methylene)bis(ethylcarbamate)] | 0.32 ± 0.003 µM | 1.52 × | able to bind covalently (interstrand cross-linking) with DNA | 0.91 ± 0.01 µM | 1.85 × | 0.39 ± 0.012 µM | 13.8 ± 3.78 µM | 0.7 ± 0.008 µM | 0.21 ± 0.01 µM | 26 ± 2.27 µM | 11.6 ± 2.84 µM | 4.33 ± 0.45 µM | – | –
CC(C)NC(=O)OCc1c(-c2ccc(F)cc2)c2sc3ccccc3n2c1COC(=O)NC(C)C [Compound 20b, (1-(4-Fluorophenyl)benzo[d]pyrrolo[2,1-b]thiazole-2,3-diyl)bis(methylene)bis(iso-propylcarbamate)] | 0.16 ± 0.007 µM | 3.20 × | – | 0.62 ± 0.014 µM | 3.80 × | 0.19 ± 0.003 µM | 24.2 ± 4.17 µM | 0.35 ± 0.01 µM | 0.05 ± 0.001 µM | 53.5 ± 9.97 µM | 11.9 ± 2.9 µM | 33 ± 3.2 µM | – | complete tumor remission (CR), mice ([5]; 20 mg/kg, Q2Dx3 and then 25 mg/kg, Q2D×4, iv. inj., on D26 and 28): two out of three
CC(C)NC(=O)OCc1c(COC(=O)NC(C)C)c2sc3ccccc3n2c1-c1ccc(Cl)cc1 [Compound 20c, (1-(4-Chlorophenyl)benzo[d]pyrrolo[2,1-b]thiazole-2,3-diyl)bis(methylene)bis(iso-propylcarbamate)] | 0.39 ± 0.004 µM | 4.87 × | able to bind covalently (interstrand cross-linking) with DNA | 1.19 ± 0.004 µM | 5.25 × | 0.42 ± 0.001 µM | 13.7 ± 1.28 µM | 1.7 ± 0.006 µM | 0.08 ± 0.0003 µM | 29 ± 4.49 µM | 7.54 ± 0.95 µM | 8.75 ± 0.88 µM | – | complete tumor remission, mice ([5]; 20 mg/kg, Q2Dx3 and then 25 mg/kg, Q2Dx5, on D24, 26, and 26, FIG. 5A): all three
CC(C)NC(=O)OCc1c(COC(=O)NC(C)C)c2n(c1-c1ccc(F)cc1)CC(C)c1c-2[nH]c2ccccc12 (centres unmarked) [Compound 28c, [3-(4-Fluorophenyl)-6-methyl-6,11-dihydro-5H-indolizino[6,7-b]indole-1,2-diyl]bis(methylene) (isopropylcarbamate)] | – | – | – | – | – | – | – | – | – | – | – | – | CR was achieved | IC50 ([3]; Table 7, 72 h, read-out: IC50 (μM) CCRF/CEM): 0.106 ± 0.004 µM; IC50 (oral cancer OECM-1; Table 7, 72 h, read-out: IC50 (μM) OECM1): 6.56 ± 1.15 µM; IC50 ([4]; Table 7, 72 h): 16.9 ± 2.69 µM
CCn1c2c(c3ccccc31)Cc1c(CO)c(CO)c(C)n1C2 [Compound 33b, [6-Ethyl-3-methyl-6,11-dihydro-5H-indolizino[6,7-b]indole-1,2-diyl]dimethanol] | – | – | – | – | – | – | – | – | – | – | – | – | CR was achieved | IC50 (prostate cancer PC3; Homo sapiens, Table 7, 72 h): 2.66 ± 0.47 µM; IC50 ([3]; Homo sapiens, CCRF-CEM, Table 7, 72 h, read-out: IC50 (μM) CCRF/CEM): 0.1 ± 0.002 µM; IC50 (glioma U87; Homo sapiens, Table 7, 72 h): 6.26 ± 1.43 µM; IC50 (oral cancer OECM-1; Homo sapiens, OECM1, Table 7, 72 h): 1.17 ± 0.89 µM; melting point: 216 to 217 °C; IC50 ([4]; Homo sapiens, NCI-H1299, Table 7, 72 h): 2.97 ± 0.55 µM
